Consider eleven compounds from patent publication US9187507B2 (Institute of Pharmacology and Toxicology Academy of …, priority 2009, dated 2015).

For series [1] the following is noted: human body, after MCC-478; cited from earlier work.
Series [2] is described as follows: Cytotoxicity by MTT method. It is filed as cell-based. To be noted: human; Hep G2 cells; MTT on the 3rd day of adding drugs; absorption at 540 nm. Here is the method:
The cytotoxicity of the desired compounds were measured by MTT method: Hep G2 cells were cultured in a DMEM culture medium containing 10% bovine calf serum, incubated in a 5% CO2 incubator, then the cells were inoculated in 96-well plate, cell count 5×10^4, continuously cultured for 3 days, added with new culture media with different drug concentrations, in which 3 parallel wells were set; on the 3rd day of adding drugs, MTT was added to 7.5 mg/ml, the culture was kept for further 2 h, the supernatant was discarded, isopropanol containing 10% […] was added, 120 μl/well, then added 0.4 μl/well again, enzyme-linked meter was used to measure the absorption at 540 nm, calculate 50% inhibition concentration, i.e., CC50 value.
On the technique in general: Formazan colour is commonly taken as a measure of viable cells.

The test system of a further series is HBV DNA. Description: Test of in vitro activity against HBV: inhibition of HBV DNA in Hep G 2.2.15 cells by quantitative real-time fluorescent PCR. It is filed as cell-based. The settings on record: Hepatitis B virus, HepG2.2.15. As for the experimental part: By an in vitro test method of using Hep G 2.2.15 cells, the inhibition effects and cytotoxicity of the desired compounds to HBV DNA were measured.
By using quantitative and real-time fluorescent PCR method, the inhibition effects of the desired compounds to HBV DNA were measured: Hep G 2.2.15 cells were cultured in a DMEM culture medium containing 10% bovine calf serum, incubated in a 5% CO2 incubator, then the cells were inoculated in 96-well plate, cell count 3×10^4, continuously cultured, when the cell density reached about 80%, the used culture medium was discarded, and new culture media with different drug concentrations were added, in which 3 parallel wells were set; the culture media were exchanged every three days. On the 10th day of using drug, 100 μl of supernatant was taken and measured to determine HBV DNA content by quantitative PCR method, calculate 50% inhibition concentration, i.e., IC50 value.

The test system of series [3] is HBV strains with resistance to lamivudine. The settings on record: cited from earlier work.
The subject of series [4] is other retro viruses such as HIV and HSV. To be noted: cited from earlier work.
The subject of another series is HBV. The settings on record: anti-HBV, cited from earlier work.
The next series concerns hepatitis B virus. The settings on record: clinical; cited from earlier work.

Where two headings read alike, the source gives them in different places.

As for `COc1ccc(Sc2nc(N)nc3c2ncn3CCOCP(=O)(O)O)cc1` [Compound 602076, 2-amino-6-(4-methoxyphenylthio)-9-(2-phosphonomethoxyethyl)-purine], the “concentration of the free acid 602076 in blood relative to that of the monoester 602074” value in series [1] was 1/10.

For `COc1ccc(Sc2nc(N)nc3c2ncn3CCOCP(=O)(OCOC(=O)C(C)C)OCOC(=O)C(C)C)cc1` [Compound I2], the CC50 (usually the concentration that lowers cell viability or growth by half) at 3 days in series [2] is more than 1000 µM. Also, inhibition in the series on HBV DNA was half-maximal at 0.02 µM (IC50).

In series [2], `COc1ccc(Sc2nc(N)nc3c2ncn3CCOCP(=O)(OCOC(=O)C(C)(C)C)OCOC(=O)C(C)(C)C)cc1` [Compound I3] showed a 50% cytotoxic concentration (CC50) at 3 days of more than 1000 µM. Moreover, the IC50 (commonly the point on the concentration scale where inhibition reaches its midpoint) with HBV DNA worked out at 0.015 µM.

For `COc1ccc(Sc2nc(N)nc3c2ncn3CCOCP(=O)(OCOC(=O)C2CCCCC2)OCOC(=O)C2CCCCC2)cc1` [Compound I4], in series [2], the CC50 at 3 days was more than 1000 µM. In addition, the IC50 in the series on HBV DNA turned out to be 0.012 µM.

Compound `COc1ccc(Sc2nc(N)nc3c2ncn3C[C@@H](C)OCP(=O)(OCOC(=O)C(C)(C)C)OCOC(=O)C(C)(C)C)cc1` [Compound I5] registered a half-maximal cytotoxic concentration (CC50) at 3 days in series [2] of more than 1000 µM. The same compound displayed an IC50 in the series with HBV DNA of 0.006 µM.

The compound `COc1ccc(Sc2nc(N)nc3c2ncn3CCOCP(=O)(OCOC(=O)OC(C)C)OCOC(=O)OC(C)C)cc1` [Compound I8] came in with a CC50 at 3 days in series [2] of more than 1000 µM. This compound had a half-inhibitory concentration (IC50) in the series with HBV DNA of 0.005 µM.

In series [2], `COc1ccc(Sc2nc(N)nc3c2ncn3CCOCP(=O)(OCOC(=O)OCC(C)C)OCOC(=O)OCC(C)C)cc1` [Compound I9] displayed a CC50 at 3 days of more than 1000 µM. For the same compound, in the series on HBV DNA, the IC50 was 0.021 µM.

Regarding `COc1ccc(Sc2nc(N)nc3c2ncn3CCOCP(=O)(OCOC(=O)OC2CCCCC2)OCOC(=O)OC2CCCCC2)cc1` [Compound I12], the CC50 at 3 days in series [2] is more than 1000 µM. In the series with HBV DNA, the 50% inhibitory concentration (IC50) amounted to 0.011 µM.

In series [2], `COc1ccc(Sc2nc(N)nc3c2ncn3C[C@@H](C)OCP(=O)(OCOC(=O)OC(C)C)OCOC(=O)OC(C)C)cc1` [Compound I13] gave a 50% cytotoxic concentration (CC50) at 3 days of more than 1000 µM. Moreover, in the series on HBV DNA, 0.054 µM corresponded to half-maximal inhibition (IC50).

`COc1ccc(Sc2nc(N)nc3c2ncn3CCOCP(=O)(OCC(F)(F)F)OCC(F)(F)F)cc1` [MCC-478] came in with a half-maximal cytotoxic concentration (CC50) at 3 days in series [2] of more than 1000 µM. Further, in series [3], the “inhibition effects on HBV strains with resistance to lamivudine” value is given as “has inhibition effects”. Also, the “activity against other retro viruses such as HIV and HSV” value in series [4] is listed as “no activity”. For the same compound, the “in vitro activity, times that of adefovir” value in the series on HBV (relative to adefovir) is on record as 10-20 times. Besides, in the series with HBV (relative to lamivudine), the “in vitro activity, times that of lamivudine” value is listed as 20-80 times. For the same compound, the IC50 in the series with HBV DNA (Hep G 2.2.15 cells, HBV DNA content in supernatant by quantitative PCR on the 10th day of using drug, read-out: IC50) was found to be 0.016 µM.

With interferon, the “effective rate of treatment” value in the series on hepatitis B virus was 30-50%.
